Results from the supplement of paper PMC10307832.

Tests used:
Experiment in all cases: relative viability (nuclei count vs DMSO), 5 days (fraction); higher = more cells survive
[1] = compound: CC[C@@H]1C(=O)N(C)c2cnc(Nc3ccc(C(=O)NC4CCN(C)CC4)cc3OC)nc2N1C1CCCC1 [BI-2536] + O=C(c1cc(Cc2n[nH]c(=O)c3ccccc23)ccc1F)N1CCN(C(=O)C2CC2)CC1 [Olaparib] (partner 8 µM)
Procedure, shortened: (§1)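 Lung cancer cell lines, seeded in 1536-well plates, were treated the following day by pin tool with a single drug or with five library-drug doses (not always all listed) in √10 steps on top of a fixed anchor-drug dose. Cells were fixed and nuclei stained in one step after 5 days, and nuclei were counted. Relative viability is the nuclei count for treated wells divided by that for vehicle wells, reported as medians of duplicate plates.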

[2] = compound: CC[C@@H]1C(=O)N(C)c2cnc(Nc3ccc(C(=O)NC4CCN(C)CC4)cc3OC)nc2N1C1CCCC1 [BI-2536] + C[C@@H](Oc1cc(-c2cnn(C3CCNCC3)c2)cnc1N)c1c(Cl)ccc(F)c1Cl [Crizotinib] (partner 1 µM)
Procedure, shortened: as §1

[3] = compound: CC1CC(=O)N(C2=CN=C(N=C2N1C3CCCC3)NC4=C(C=C(C=C4)C(=O)NC5CCN(CC5)C)OC)C [NPK76-II-72-1] + C[C@]1(O)C[C@@H](c2nc(-c3ccc4ccc(-c5ccccc5)nc4c3)c3c(N)nccn32)C1 [Linsitinib] (partner 1 µM)
Procedure, shortened: as §1

[4] = compound: CC[C@@H]1C(=O)N(C)c2cnc(Nc3ccc(C(=O)NC4CCN(C)CC4)cc3OC)nc2N1C1CCCC1 [BI-2536] + Nc1nc2[nH]cc(CCc3ccc(C(=O)N[C@@H](CCC(=O)O)C(=O)O)cc3)c2c(=O)[nH]1 [Pemetrexed] (partner 0.2 µM)
Procedure, shortened: as §1

| Cell Line | relative viability ([1]; first compound 0.01 µM) | relative viability ([1]; first compound 0.03162 µM) | relative viability ([1]; first compound 0.1 µM) | relative viability ([1]; first compound 0.3162 µM) | relative viability ([1]; first compound 1 µM) | relative viability ([2]; first compound 0.01 µM) | relative viability ([2]; first compound 0.03162 µM) | relative viability ([2]; first compound 0.1 µM) | relative viability ([2]; first compound 0.3162 µM) | relative viability ([2]; first compound 1 µM) | relative viability ([3]; first compound 0.01 µM) | relative viability ([3]; first compound 0.03162 µM) | relative viability ([3]; first compound 0.1 µM) | relative viability ([3]; first compound 0.3162 µM) | relative viability ([3]; first compound 1 µM) | relative viability ([4]; first compound 0.01 µM) | relative viability ([4]; first compound 0.03162 µM) | relative viability ([4]; first compound 0.1 µM) | relative viability ([4]; first compound 0.3162 µM) | relative viability ([4]; first compound 1 µM) |
| --- | --- | --- | --- | --- | --- | --- | --- | --- | --- | --- | --- | --- | --- | --- | --- | --- | --- | --- | --- | --- |
| NCI-H3122 | 0.621 | 0.595 | 0.276 | 0.131 | 0.146 | 0.294 | 0.272 | 0.242 | 0.182 | 0.199 | 0.945 | 1.03 | 1.09 | 1.03 | 1.05 | 0.212 | 0.171 | 0.159 | 0.129 | 0.121 |
| COR-L23 | 0.384 | 0.288 | 0.156 | 0.111 | 0.111 | 0.684 | 0.566 | 0.226 | 0.11 | 0.0912 | 0.869 | 0.918 | 0.898 | 0.908 | 1.04 | 0.216 | 0.206 | 0.178 | 0.144 | 0.133 |
| NCI-H2087 | 0.614 | 0.673 | 0.471 | 0.0859 | 0.102 | 0.892 | 0.771 | 0.518 | 0.169 | 0.139 | 1.02 | 0.996 | 0.909 | 1 | 1.11 | 0.7 | 0.697 | 0.713 | 0.104 | 0.0907 |
| LC-2-ad | 0.705 | 0.621 | 0.24 | 0.205 | 0.205 | 0.41 | 0.272 | 0.205 | 0.217 | 0.286 | 0.78 | 0.767 | 0.854 | 0.801 | 0.834 | 0.281 | 0.234 | 0.171 | 0.165 | 0.177 |
| NCI-H1915 | 0.218 | 0.205 | 0.163 | 0.0887 | 0.0963 | 0.931 | 0.549 | 0.549 | 0.116 | 0.108 | 1.11 | 1.1 | 1.11 | 1.07 | 1.14 | 0.507 | 0.427 | 0.347 | 0.147 | 0.0852 |
| NCI-H2023 | 0.426 | 0.338 | 0.13 | 0.0876 | 0.0937 | 0.582 | 0.493 | 0.346 | 0.0851 | 0.0743 | 0.488 | 0.713 | 0.716 | 0.56 | 0.655 | 0.225 | 0.197 | 0.124 | 0.0926 | 0.0873 |
| COR-L 105 | 0.655 | 0.668 | 0.679 | 0.404 | 0.296 | 0.798 | 0.611 | 0.394 | 0.288 | 0.264 | 1.01 | 0.936 | 1.09 | 0.738 | 1.13 | 0.986 | 1.13 | 1.01 | 0.384 | 0.362 |
| RERF-LC-KJ | 0.901 | 0.571 | 0.24 | 0.201 | 0.223 | 0.894 | 0.711 | 0.764 | 0.174 | 0.218 | 0.902 | 0.876 | 0.802 | 0.771 | 0.923 | 0.46 | 0.46 | 0.31 | 0.186 | 0.213 |
